Measurements from patent US20010016643A1, “Peptide derivatives” (priority 1995, published 2001).
Residues, ends and D or L forms follow the SMILES beside them.

How the values were obtained:
[1] = Blood glucose in rabbits pretreated with Insulin Actrapid after SC injection of glucagon or derivative; type: in vivo
Procedure: The resulting solution was sterilized by filtration and transferred to a vial.
Blood was sampled at times: −60, 0, 15, 30, 60, 120, 180 and 240 min, and the glucose concentration determined by the hexokinase method.

[2] = Lipophilicity relative to human insulin (k′rel) by RP-HPLC; type: physicochemical; settings: LiChrosorb RP18 HPLC, isocratic elution, sodium phosphate buffer pH 7.3/acetonitrile
Procedure: The lipophilicity of peptides and peptide derivatives relative to human insulin, k′rel, was measured on a LiChrosorb RP18 (5 μm, 4×250 mm) HPLC column by isocratic elution at […] using mixtures of A) 0.1 M sodium phosphate buffer, pH 7.3, containing 10% acetonitrile, and B) 50% acetonitrile in water as eluents. The elution was monitored by following the UV absorption of the eluate at 214 nm. Void time, t0, was found by injecting 0.1 mM sodium nitrate. Retention time for human insulin, tinsulin was adjusted to at least 2t0 by varying the ratio between the A and B solutions. k′rel=(tderivative−t0 /(tinsulin−t0).

Compound “Lys^30 (N^ε-decanoyl) glucagon [Example 6]” has a blood glucose concentration ([1]; 15 min after SC injection) of 79 mg glucose/100 ml, a blood glucose concentration ([1]; 30 min after SC injection) of 93 mg glucose/100 ml and a blood glucose concentration ([1]; 60 min after SC injection) of 114 mg glucose/100 ml. For the same compound, the blood glucose concentration ([1]; 120 min after SC injection) was 112 mg glucose/100 ml, the blood glucose concentration ([1]; 180 min after SC injection) was 116 mg glucose/100 ml and the blood glucose concentration ([1]; 240 min after SC injection) was 110 mg glucose/100 ml. The “blood glucose raising effect” value ([1]; SC, compared with glucagon) was “retained in Lys^30(Nε-decanoyl) glucagon but with a prolonged action”, the blood glucose concentration ([1]; time 0 min (SC injection of test substance)) was 51 mg glucose/100 ml and the blood glucose concentration ([1]; time −60 min (at Insulin Actrapid 2 IU/animal, before test substance)) was 94 mg glucose/100 ml.

With CCCC[C@H](NC=O)C(=O)N[C@@H](CC(C)C)C(=O)N[C@@H](Cc1ccccc1)C(=O)N[C@@H](CCCC)C(=O)N[C@@H](Cc1ccc(O)cc1)C(=O)N[C@@H](CCCCN)C(=O)O [For-Nle-Leu-Phe-Nle-Tyr-Lys-OH] (HELM PEPTIDE1{[O=C[*:2]].[Nle].L.F.[Nle].Y.K}$$$$V2.0) the “lipophilicity relative to human insulin, k′rel” value [2] was 2.3.
